Laboratory results: patent publication US20240150366A1, “4-AMINOQUINAZOLINE COMPOUND” (Astellas Pharma Inc., priority 2021, published 2024)
Read-outs that look alike come from different tables or passages of the source.

Tests used:
[1] = test system: ERK phosphorylation (Thr202/Tyr204) in KRAS G12D mutant-positive pancreatic cancer line AsPC-1; test: ERK phosphorylation inhibitory activity in AsPC-1 (cell ELISA); format: cell-based; conditions: Homo sapiens, ASPC1, 2 h, read-out: IC50, ERK phosphorylation inhibition
Protocol: The ERK phosphorylation inhibitory activities of subject compounds were evaluated by measuring phosphorylation of the 202th threonine (Thr202) and the 204th tyrosine (Tyr204) of ERK located downstream of the KRAS signal by cell ELISA.
AsPC-1 cells (ATCC, CRL-1682) were seeded at 36 μL/well on a 384-well plate (from Greiner bio-one) to give 2.0×10^4 cells per well. As for the cell culture conditions, RPMI-1640 medium (from Sigma-Aldrich) containing 10% fetal bovine serum (from GE Life Sciences) was used in the presence of 5% CO2 at 37° C.
The next day, the subject compounds (6 points having final concentrations in the range of 10 μM to 0.3 nM), trametinib (MEK inhibitor) of a final concentration of 1 μM as a positive control and DMSO, which was the solvent for the subject compounds, as a negative control were diluted 100-fold with a fresh medium and were each added at 4 μL per well, followed by culturing for 2 hours. After culturing, a 30% glyoxal solution (40% glyoxal [from Wako] was diluted with Phosphate Buffered Saline [PBS; from Wako) was quickly added at 30 μL per well, and the plate was allowed to stand for an hour at room temperature to thus immobilize the cells. Then, the plate was centrifuged (110× g, seven seconds, hereinafter centrifugation was performed under the same conditions unless otherwise specified) to remove the supernatant, and 0.1% Triton X-100 (from Amersham Biosciences)—containing PBS was added at 20 μL per well. After allowing the plate to stand for 10 minutes at room temperature, the supernatant was removed by centrifugation, and the same operation was further repeated. Next, 0.5% sodium dodecyl sulfate (SDS; from Invitrogen)-containing PBS was added at 20 μL per well. The plate was allowed to stand at room temperature for 30 minutes and was then centrifuged to remove the supernatant. Subsequently, a blocking solution (Intercept Blocking Buffer; from LI-COR Biosciences) was added at 20 μL per well, and the plate was allowed to stand for an hour at room temperature. The supernatant was removed by centrifugation, and an ERK (Thr202/Tyr204) phosphorylation antibody (Phospho-p44/42 MAPK (Erk 1/2) (Thr202/Tyr204) (D13.14.4E) XP Rabbit mAb; from Cell Signaling Technology) diluted 2,500-fold with the blocking solution was added at 10 μL per well as a primary antibody. The plate was allowed to stand at 4° C. overnight.
The next day, the plate was centrifuged to remove the supernatant, and 0.05% Tween-20-containing PBS (from Thermo Scientific; 20× PBS Tween-20 was diluted 20-fold with ion exchange water and used) was added at 20 μL per well. The supernatant was removed by centrifugation to thus wash each well. The washing was performed three times in total. After washing, an IRDye 800CW Goat anti-Rabbit IgG (from LI-COR Biosciences) diluted 1,000-fold with the blocking solution was added at 10 μL per well as a secondary antibody, and the plate was allowed to stand for an hour at room temperature. The plate was centrifuged to remove the supernatant, and each well was washed three times with 0.05% Tween-20-containing PBS in the same manner as after the primary antibody reaction. Centrifugation after the third washing was performed at 171×g for 17 seconds. After removing the supernatant, the plate was dried as it was with air at room temperature for three hours or more, and the 800-nm fluorescent signals were measured with Aerius (from LI-COR Biosciences).
With the signaling value at the time of addition of DMSO taken as 0% inhibition and with the signaling value at the time of addition of […] trametinib taken as 100% inhibition, the 50% inhibition values (IC50) were calculated by Sigmoid-Emax model nonlinear regression analysis.

[2] = biological target: KRAS G12D/SOS/c-Raf complex (Homo sapiens (Human), UniProt P01116, G12D); test: KRAS G12D/SOS/c-Raf complex formation inhibitory activity (TR-FRET); format: biochemical; conditions: human recombinant proteins, 1 hour at room temperature, read-out: IC50, KRAS G12D/SOS/c-Raf complex formation inhibition
Sequence of KRAS G12D/SOS/c-Raf complex (P01116 other isoform, or with tags, fused parts or gaps G12D): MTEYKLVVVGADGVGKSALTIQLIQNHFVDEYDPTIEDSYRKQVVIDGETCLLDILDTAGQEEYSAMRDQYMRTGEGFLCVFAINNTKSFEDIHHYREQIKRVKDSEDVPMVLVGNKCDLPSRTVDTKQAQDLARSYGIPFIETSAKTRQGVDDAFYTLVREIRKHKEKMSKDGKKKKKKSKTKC
Protocol: Using human recombinant KRAS G12D, SOS and c-Raf proteins, the inhibitory activity of subject compounds on the complex formation of the proteins was examined by a time-resolved fluorescence resonance energy transfer (TR-FRET) method.
Biotinylated AviTag-KRAS G12D (amino acid region of 1-185, GDP) (2.5 μL; 400 nM) and subject compounds dissolved in an assay buffer (50 mM HEPES, 150 mM NaCl, 5 mM MgCl2, 0.05% Tween 20, pH 7.0) were added to a 384-well plate (from Corning) in a liquid volume of 2.5 μL at 40,000 nM to 40 nM. Son of Sevenless (SOS) (amino acid region of 564-1049, 2.5 μL; 1.3 μM) and c-Raf (amino acid region of 51-131) GST (2.5 μL; 130 nM) containing GTP (from Sigma-Aldrich; 2 μM) were added to the plate, and the plate was allowed to stand for 1 hour at room temperature. Then, a mixture liquid (10 μL) of LANCE Ulight-anti-GST (from PerkinElmer; 120 nM) and LANCE Eu-W1024 labeled Streptoavidin (from PerkinElmer; 100 ng/mL) was added, and the 620-nm and 665-nm fluorescence intensities were measured using EnVision 2104 (from PerkinElmer) under the conditions of an excitation wavelength of 337 nm. After standardizing the values with the fluorescence intensity at a reference wavelength of 620 nm, the 50% inhibitory concentrations (IC50) were calculated by Sigmoid-Emax model nonlinear regression analysis with the signaling value in treatment with the solvent taken as 0% inhibition and with the signaling value without the addition of GTP taken as 100% inhibition.

[3] = test system: KRAS G12D mutant-positive pancreatic cancer line AsPC-1; test: Non-anchorage-dependent cell growth inhibitory activity in AsPC-1 (spheroid 3D culture); format: cell-based; conditions: Homo sapiens, ASPC1, 144 h, read-out: IC50, non-anchorage-dependent cell growth inhibition
Protocol: The non-anchorage-dependent cell growth inhibitory activities of subject compounds were evaluated by spheroid 3D cell culture.
AsPC-1 cells were seeded at 36 μL/well on a low-cell-adhesive round bottom 384-well plate (Prime Surface: from Sumitomo Bakelite) to give 5×10^2 cells per well. The cell culture was performed under the same conditions as in the Test Example 2.
The next day, the subject compounds (6 points having final concentrations in the range of 10 μM to 3.0 nM) and DMSO, which was the solvent for the subject compounds, as a negative control were diluted 100-fold with a fresh medium and were each added at 4 μL per well. After culturing in the presence of 5% CO2 at 37° C. for six days, CellTiter Glo 2.0 (from Promega) was added at 20 μL per well. After stirring with a plate mixer (from FINEPCR) at normal temperature for an hour, the luminescent signals were measured with ARVO X3 (from PerkinElmer).
With the signaling value in treatment with DMSO taken as 0% inhibition and with the signaling value in the medium alone without cells taken as 100% inhibition, the 50% inhibition values (IC50) were calculated by Sigmoid-Emax model nonlinear regression analysis.

[4] = AsPC-1 spheroid 3D culture, six days, CellTiter Glo 2.0

Row | SMILES | IC50 [1] | IC50 [2] | IC50 [3] | IC50 [3, 4]
1 | Cc1c(F)cc2[nH]ncc2c1-c1c(C2CC2)cc2c(N3C[C@@H]4C[C@H]3CN4)nc(OC3CCOCC3)nc2c1OCc1ccc(Cc2nc3ncccn3n2)cc1 [Example 13, 6-cyclopropyl-4-[(1S,4S)-2,5-diazabicyclo[2.2.1]heptan-2-yl]-7-(6-fluoro-5-methyl-1H-indazol-4-yl)-2-[(oxan-4-yl)oxy]-8-({4-[([1,2,4]triazolo[1,5-a]pyrimidin-2-yl)methyl]phenyl}methoxy)quinazoline] | 78 nM | 77 nM | 130 nM | 
2 | Cc1c(F)cc2[nH]ncc2c1-c1c(C2CC2)cc2c(N3C[C@@H]4C[C@H]3CN4)nc(OC3CCOCC3)nc2c1OCc1ccc(Cn2nc(-c3cnccn3)nc2C)cc1 [Example 11, 6-cyclopropyl-4-[(1S,4S)-2,5-diazabicyclo[2.2.1]heptan-2-yl]-7-(6-fluoro-5-methyl-1H-indazol-4-yl)-8-[(4-{[5-methyl-3-(pyrazin-2-yl)-1H-1,2,4-triazol-1-yl]methyl}phenyl)methoxy]-2-[(oxan-4-yl)oxy]quinazoline] | 81 nM | 110 nM | 133 nM | 
3 | Cc1c(F)cc2[nH]ncc2c1-c1c(C2CC2)cc2c(N3C[C@@H]4C[C@H]3CN4)nc(OC3CCOCC3)nc2c1OCc1ccc(CN2CCN(CC3CC3)CC2=O)cc1 [Example 7, 1-({4-[({6-cyclopropyl-4-[(1S,4S)-2,5-diazabicyclo[2.2.1]heptan-2-yl]-7-(6-fluoro-5-methyl-1H-indazol-4-yl)-2-[(oxan-4-yl)oxy]quinazolin-8-yl}oxy)methyl]phenyl}methyl)-4-(cyclopropylmethyl)piperazin-2-one] |  | 105 nM | 80 nM | 
4 | Cc1c(F)cc2[nH]ncc2c1-c1c(C2CC2)cc2c(N3C[C@@H]4C[C@H]3CN4)nc(OC3CCOCC3)nc2c1OCc1ccc(Cc2cn3ccncc3n2)cc1 [Example 20, 6-cyclopropyl-4-[(1S,4S)-2,5-diazabicyclo[2.2.1]heptan-2-yl]-7-(6-fluoro-5-methyl-1H-indazol-4-yl)-8-({4-[(imidazo[1,2-a]pyrazin-2-yl)methyl]phenyl}methoxy)-2-[(oxan-4-yl)oxy]quinazoline] |  | 70 nM | 138 nM | 
5 | Cc1c(F)cc2[nH]ncc2c1-c1c(C2CC2)cc2c(N3C[C@@H]4C[C@H]3CN4)nc(OC3CCOCC3)nc2c1OCc1ccc(Cn2c(=O)n(C)c3nccnc32)cc1 (single isomer, unassigned) [Example 1] |  | 44 nM |  | 68 nM
6 | Cc1c(F)cc2[nH]ncc2c1-c1c(C2CC2)cc2c(N3C[C@@H]4C[C@H]3CN4)nc(OC3CCOCC3)nc2c1OCc1ccc(Cc2nc(C3CC3)n(C)n2)cc1 [Example 22, 6-cyclopropyl-8-({4-[(5-cyclopropyl-1-methyl-1H-1,2,4-triazol-3-yl)methyl]phenyl}methoxy)-4-[(1 S,4S)-2,5-diazabicyclo[2.2.1]heptan-2-yl]-7-(6-fluoro-5-methyl-1H-indazol-4-yl)-2-[(oxan-4-yl)oxy]quinazoline] |  | 161 nM |  | 209 nM
7 | Cc1c(F)cc2[nH]ncc2c1-c1c(C2CC2)cc2c(N3C[C@@H]4C[C@H]3CN4)nc(OC3CCOCC3)nc2c1OCc1ccc(Cc2ncn(C3CCOCC3)n2)cc1 [Example 19, 6-cyclopropyl-4-[(1S,4S)-2,5-diazabicyclo[2.2.1]heptan-2-yl]-7-(6-fluoro-5-methyl-1H-indazol-4-yl)-2-[(oxan-4-yl)oxy]-8-[(4-{[1-(oxan-4-yl)-1H-1,2,4-triazol-3-yl]methyl}phenyl)methoxy]quinazoline] |  | 65 nM | 189 nM | 
8 | Cc1c(F)cc2[nH]ncc2c1-c1c(C2CC2)cc2c(N3C[C@@H]4C[C@H]3CN4)nc(OC3CCOCC3)nc2c1OCc1ccc(CN2C(=O)CN(C)c3ncccc32)cc1 [Example 23, 1-({4-[({6-cyclopropyl-4-[(1S,4S)-2,5-diazabicyclo[2.2.1]heptan-2-yl]-7-(6-fluoro-5-methyl-1H-indazol-4-yl)-2-[(oxan-4-yl)oxy]quinazolin-8-yl}oxy)methyl]phenyl}methyl)-4-methyl-3,4-dihydropyrido[2,3-b]pyrazin-2(1H)-one] |  | 68 nM |  | 
9 | Cc1c(F)cc2[nH]ncc2c1-c1c(C2CC2)cc2c(N3C[C@@H]4C[C@H]3CN4)nc(OC3CCOCC3)nc2c1OCc1ccc(Cc2nc3n(n2)CCC3)cc1 [Example 18, 6-cyclopropyl-4-[(1S,4S)-2,5-diazabicyclo[2.2.1]heptan-2-yl]-8-({4-[(6,7-dihydro-5H-pyrrolo[1,2-b][1,2,4]triazol-2-yl)methyl]phenyl}methoxy)-7-(6-fluoro-5-methyl-1H-indazol-4-yl)-2-[(oxan-4-yl)oxy]quinazoline] |  | 92 nM | 192 nM | 
10 | CCc1nc(Cc2ccc(COc3c(-c4c(C)c(F)cc5[nH]ncc45)c(C4CC4)cc4c(N5C[C@@H]6C[C@H]5CN6)nc(OC5CCOCC5)nc34)cc2)nn1C [Example 15, 6-cyclopropyl-4-[(1S,4S)-2,5-diazabicyclo[2.2.1]heptan-2-yl]-8-({4-[(5-ethyl-1-methyl-1H-1,2,4-triazol-3-yl)methyl]phenyl}methoxy)-7-(6-fluoro-5-methyl-1H-indazol-4-yl)-2-[(oxan-4-yl)oxy]quinazoline] |  | 88 nM | 152 nM | 
